This is an account of results in ChEMBL document CHEMBL1132018, “Design and synthesis of thiol containing inhibitors of matrix metalloproteinases” (Bioorg Med Chem Lett, 1999).

For assay [1], the target named is Matrix metalloproteinase-9 (Rattus norvegicus, UniProt P50282). The experiment in a line: In vitro inhibitory activity against matrix metalloprotease-9.
Assay [2] concerns the target T1, Interstitial collagenase (Homo sapiens, UniProt P03956).
T1 sequence (P03956 whole entry): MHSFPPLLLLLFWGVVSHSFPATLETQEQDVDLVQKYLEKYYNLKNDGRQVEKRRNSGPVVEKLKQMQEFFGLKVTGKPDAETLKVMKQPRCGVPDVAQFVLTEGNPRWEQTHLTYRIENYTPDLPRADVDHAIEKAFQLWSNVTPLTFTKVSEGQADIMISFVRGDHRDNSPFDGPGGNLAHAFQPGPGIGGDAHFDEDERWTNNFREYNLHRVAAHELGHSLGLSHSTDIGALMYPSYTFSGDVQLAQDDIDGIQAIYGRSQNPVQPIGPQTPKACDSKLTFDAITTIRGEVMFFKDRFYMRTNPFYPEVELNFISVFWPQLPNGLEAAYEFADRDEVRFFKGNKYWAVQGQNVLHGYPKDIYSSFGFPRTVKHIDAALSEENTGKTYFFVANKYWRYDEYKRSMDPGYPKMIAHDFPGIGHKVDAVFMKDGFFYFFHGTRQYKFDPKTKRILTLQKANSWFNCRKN
The assay can be described thus: In vitro inhibitory activity against matrix metalloprotease 1.

Assay [3] relates to Rattus norvegicus. The assay can be described thus: Drug level in plasma was determined 2 hours after administration to 3 rats orally at 75 umol/kg. The format is functional, organism-based.
Assay [4] has as its system Rattus norvegicus. The assay can be described thus: Drug level in plasma was determined 4 hours after administration to 3 rats orally at 75 umol/kg. Format: functional, organism-based.
Assay [5] relates to Rattus norvegicus. The experiment in a line: Drug level in plasma was determined 2 hours after administration to 2 rats orally at 75 umol/kg. The format is functional, organism-based.
Assay [6] relates to Rattus norvegicus. The experiment in a line: Drug level in plasma was determined 4 hours after administration to 2 rats orally at 75 umol/kg. Format: functional, organism-based.
The target of assay [7] is T1, Interstitial collagenase. The assay can be described thus: Inhibition of matrix metalloprotease 1 (MMP 1).

Sequence of Matrix metalloproteinase-9 (P50282 whole entry): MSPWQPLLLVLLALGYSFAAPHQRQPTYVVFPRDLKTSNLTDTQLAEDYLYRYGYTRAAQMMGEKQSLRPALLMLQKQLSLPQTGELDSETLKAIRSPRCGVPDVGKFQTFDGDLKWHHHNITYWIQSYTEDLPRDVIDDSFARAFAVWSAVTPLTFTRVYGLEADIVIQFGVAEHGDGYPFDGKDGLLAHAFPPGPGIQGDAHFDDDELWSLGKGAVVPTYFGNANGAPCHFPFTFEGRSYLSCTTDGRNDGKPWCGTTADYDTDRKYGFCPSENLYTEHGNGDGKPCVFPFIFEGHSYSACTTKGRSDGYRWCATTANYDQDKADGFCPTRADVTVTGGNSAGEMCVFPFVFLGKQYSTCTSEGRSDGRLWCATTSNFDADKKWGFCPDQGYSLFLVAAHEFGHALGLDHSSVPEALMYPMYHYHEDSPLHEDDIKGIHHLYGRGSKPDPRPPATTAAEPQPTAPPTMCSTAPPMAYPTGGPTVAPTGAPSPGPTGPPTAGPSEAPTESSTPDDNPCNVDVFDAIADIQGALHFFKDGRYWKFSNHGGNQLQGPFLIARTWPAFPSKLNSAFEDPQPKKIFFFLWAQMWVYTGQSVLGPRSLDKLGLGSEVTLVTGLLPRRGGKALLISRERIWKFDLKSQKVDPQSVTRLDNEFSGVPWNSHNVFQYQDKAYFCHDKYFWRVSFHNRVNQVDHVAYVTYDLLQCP

For orientation: IC50 means the concentration that gives 50% inhibition. Low values mean greater potency in that assay, high ones weaker potency in that assay. For `CNC(=O)[C@H](Cc1ccccc1)NC(=O)C1(CS)CCCCC1`, the IC50 in assay [1] amounted to 350 nM; in assay [2] it was 5030 nM.

Turning to `CCO[C@H]1CC[C@@](CS)(C(=O)N[C@@H](Cc2ccccc2)C(=O)Nc2ccc(Cl)cc2)CC1`, the half-inhibitory concentration (IC50) in assay [1] amounted to 79 nM; in assay [2] it was 5910 nM.

For `CCO[C@H]1CC[C@@](CS)(C(=O)N[C@@H](Cc2ccccc2)C(=O)NC)CC1`, the 50% inhibitory concentration (IC50) in assay [1] came out at 18 nM; in assay [2], 700 nM.

Turning to `CCO[C@H]1CC[C@@](CS)(C(=O)N[C@@H](Cc2ccccc2)C(=O)Nc2ccc(N(C)C)cc2)CC1`, the IC50 in assay [1] was determined as 63 nM; in assay [2] it was 1330 nM.

As for `CCO[C@H]1CC[C@@](CS)(C(=O)N[C@@H](Cc2ccccc2)C(=O)NC(C)C)CC1`, the values for the 50% inhibitory concentration (IC50) in assay [1] and in assay [2] were 40 nM and 680 nM, respectively.

As to `CCO[C@H]1CC[C@@](CS)(C(=O)N[C@@H](Cc2ccccc2)C(=O)Nc2ccc(OC(F)(F)F)cc2)CC1`, the IC50 in assay [1] is 81 nM; in assay [2] it was greater than 10000 nM.

Consider `CCO[C@H]1CC[C@@](CS)(C(=O)N[C@@H](Cc2cccnc2)C(=O)Nc2ccccc2)CC1`, for which the half-maximal inhibitory concentration (IC50) in assay [1] was found to be 21 nM; in assay [2], 564 nM.

Take `CCC[C@H]1CC[C@@](CS)(C(=O)N[C@@H](Cc2ccccc2)C(=O)NC)CC1`: the IC50 in assay [1] was greater than 10000 nM.

Take `CCO[C@H]1CC[C@@](CS)(C(=O)N[C@@H](Cc2ccccc2)C(=O)NC2CCCCC2)CC1`: the IC50 in assay [1] was determined as 79 nM; in assay [2] it was 2930 nM.

Regarding `CCO[C@H]1CC[C@@](CS)(C(=O)N[C@@H](Cc2ccccc2)C(=O)Nc2ccccc2)CC1` (stereo in doubt; 13), the results for the IC50 in assay [1] and in assay [2] were 49 nM and 1220 nM, respectively.

For `CCO[C@H]1CC[C@@](CS)(C(=O)N[C@@H](Cc2cccs2)C(=O)Nc2ccccc2)CC1`, the figures for the IC50 in assay [1] and in assay [2] were 42 nM and 953 nM, respectively.

For the molecule `CCO[C@H]1CC[C@@](CS)(C(=O)N[C@@H](Cc2ccccc2)C(=O)Nc2ccc(F)cc2)CC1`, the IC50 in assay [1] stood at 52 nM; in assay [2] it was 2150 nM.

In turn, `CNC(=O)[C@H](Cc1ccccc1)NC(=O)[C@]1(CS)CC[C@H](C(C)(C)C)CC1` showed an IC50 in assay [1] greater than 10000 nM.

With `CCO[C@H]1CC[C@@](CS)(C(=O)N[C@@H](Cc2ccccc2)C(=O)NC2CCCC2)CC1`, the figures for the IC50 in assay [1] and in assay [2] were 24 nM and 561 nM, respectively.

For the molecule `CCO[C@H]1CC[C@@](CS)(C(=O)N[C@@H](Cc2ccccc2)C(=O)Nc2ccccn2)CC1`, the values for the IC50 in assay [1] and in assay [2] were 121 nM and 3470 nM, respectively.

With `CNC(=O)[C@H](Cc1ccccc1)NC(=O)[C@]1(CS)CC[C@H](OC)CC1`, the half-inhibitory concentration (IC50) in assay [1] was found to be 35 nM; in assay [2] it was 110 nM.

As to `CCO[C@H]1CC[C@@](CS)(C(=O)N[C@@H](Cc2ccc(Cl)cc2)C(=O)Nc2ccccc2)CC1`, the IC50 in assay [1] turned out to be 66 nM; in assay [2], 1940 nM.

Consider `CCO[C@H]1CC[C@@](CS)(C(=O)N[C@@H](Cc2ccccc2)C(=O)NCc2ccccc2)CC1`, for which the results for the Plasma concentration in assay [3] and in assay [4] were 837 nM and 491 nM, respectively. Further, the IC50 in assay [1] was determined as 26 nM; in assay [2] it was 823 nM.

With `CNC(=O)[C@H](Cc1ccccc1)NC(=O)[C@@]1(CS)CCCC(OC)C1` (stereo partly specified), in assay [1], the IC50 is greater than 10000 nM.

Take `CCO[C@H]1CC[C@@](CS)(C(=O)N[C@@H](Cc2ccccc2)C(=O)Nc2cccnc2)CC1`: the Plasma concentration was found to be 253 nM in assay [5] and 289 nM in assay [6]. For the same molecule, the results for the IC50 in assay [1] and in assay [2] were 17 nM and 135 nM, respectively.

Regarding `CCOc1ccc(C[C@H](NC(=O)[C@]2(CS)CC[C@H](OCC)CC2)C(=O)Nc2ccccc2)cc1`, the IC50 came out at 34 nM in assay [1] and 3270 nM in assay [2].

Regarding `CCO[C@H]1CC[C@@](CS)(C(=O)N[C@@H](Cc2ccccc2)C(=O)Nc2ccc(OC)cc2)CC1`, the concentration for half-maximal inhibition (IC50) in assay [1] amounted to 46 nM; in assay [2], 1270 nM.

Consider `CCO[C@H]1CC[C@@](CS)(C(=O)N[C@@H](Cc2ccc(F)cc2)C(=O)Nc2ccccc2)CC1`, for which the IC50 is 83 nM in assay [1] and 6260 nM in assay [2].

As to `CNC(=O)[C@H](Cc1ccccc1)NC(=O)[C@]1(CS)CC[C@H](C(F)(F)F)CC1`, the concentration for half-maximal inhibition (IC50) in assay [1] is 108 nM; in assay [2], 669 nM.

With `CCO[C@H]1CC[C@@](CS)(C(=O)N[C@@H](Cc2ccccc2)C(=O)Nc2ccccc2)CC1` (stereo in doubt; 14), the IC50 in assay [1] is greater than 10000 nM.

Take `CCO[C@H]1CC[C@@](CS)(C(=O)N[C@@H](Cc2ccc(OC)cc2)C(=O)Nc2ccccc2)CC1`: the IC50 in assay [7] was 1060 nM; in assay [1], 20 nM.

In the case of `CCCO[C@H]1CC[C@@](CS)(C(=O)N[C@@H](Cc2ccccc2)C(=O)NC)CC1`, the IC50 in assay [1] turned out to be 630 nM; in assay [2], 6030 nM.

In the case of `CCO[C@H]1CC[C@@](CS)(C(=O)N[C@@H](Cc2ccc(O)cc2)C(=O)Nc2ccccc2)CC1`, the results for the half-inhibitory concentration (IC50) in assay [1] and in assay [2] were 14 nM and 739 nM, respectively.
